In assay [1] the target is T1, 5-HT3AB receptor, 5-HT3B subunit I183A (Homo sapiens, UniProt O95264+P46098, I176A).
T1 sequence (P46098 24-478): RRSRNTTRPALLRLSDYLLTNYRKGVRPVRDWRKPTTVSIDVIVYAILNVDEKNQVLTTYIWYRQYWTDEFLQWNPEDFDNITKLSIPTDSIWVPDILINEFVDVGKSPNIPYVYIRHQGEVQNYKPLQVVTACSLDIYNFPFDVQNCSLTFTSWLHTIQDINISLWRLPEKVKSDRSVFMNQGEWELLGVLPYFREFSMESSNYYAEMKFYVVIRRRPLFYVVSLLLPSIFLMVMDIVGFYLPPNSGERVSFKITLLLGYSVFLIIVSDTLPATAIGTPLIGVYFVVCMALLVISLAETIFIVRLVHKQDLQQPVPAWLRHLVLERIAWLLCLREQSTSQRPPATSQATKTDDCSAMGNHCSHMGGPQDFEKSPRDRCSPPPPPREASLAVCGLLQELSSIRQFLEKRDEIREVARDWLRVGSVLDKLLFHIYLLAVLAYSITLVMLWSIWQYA
T1 sequence (O95264 22-441 I176A): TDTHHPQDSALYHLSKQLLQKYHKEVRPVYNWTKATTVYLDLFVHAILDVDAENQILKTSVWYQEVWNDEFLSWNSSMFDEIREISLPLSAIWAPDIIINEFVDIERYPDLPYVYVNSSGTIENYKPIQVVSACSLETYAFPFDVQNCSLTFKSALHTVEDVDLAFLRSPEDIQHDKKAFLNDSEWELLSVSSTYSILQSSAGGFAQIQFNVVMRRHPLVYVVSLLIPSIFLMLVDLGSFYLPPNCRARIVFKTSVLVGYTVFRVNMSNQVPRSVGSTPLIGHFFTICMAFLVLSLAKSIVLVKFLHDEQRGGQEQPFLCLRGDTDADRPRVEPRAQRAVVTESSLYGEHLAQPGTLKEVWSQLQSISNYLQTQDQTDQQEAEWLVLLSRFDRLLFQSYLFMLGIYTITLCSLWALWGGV
The experiment in a line: FlexStation membrane potential dye functional assay, HEK293 cells. The settings on record: 5-HT concentration-response, 5-HT3AB with 5-HT3B I183A.
Procedure: For FlexStation assays, transfected cells were plated on 96-well plates and incubated 1–2 days before assay.
Fluorometric studies were undertaken using a FlexStation® (Molecular Devices, Sunnyvale, CA, USA) as previously described.[11]
Fluorescence was measured every 2 s for 200 s. […] Concentration–response and inhibition curves were obtained for each mutant, and the fluorescence values were normalized to the maximal response.

The target of a further assay is T2, 5-HT3A receptor S163A (Homo sapiens, UniProt P46098, S158A).
T2 sequence (P46098 24-478 S158A): T1 sequence (P46098 24-478) with S135A
Nature of the assay: radioligand saturation binding, transfected HEK293 membranes. The settings on record: [3H]-palonosetron saturation, 5-HT3A S163A, 4 °C, 24 h.

SMILES strings stand for the structures. Substitutions are numbered along the chain they refer to.

The values below come from PMC3898987 (Bioorganic & Medicinal Chemistry, 2013).

For orientation: Kd means the free concentration of one partner at which half of the binding sites on the other are occupied at equilibrium, for simple one-to-one binding.

Procedure for 5-HT3A receptor S163A: Human embryonic kidney (HEK) 293 cells were cultured on 90 mm tissue culture plates at 37 °C and 7% CO2 in a humidified atmosphere. They were grown in DMEM:F12 (Dulbecco’s Modified Eagle’s Medium/Nutrient Mix F12 (1:1)) with GlutaMAX I™ containing 10% fetal calf serum and passaged when confluent. For radioligand binding studies, cells in 90 mm dishes were transfected at 60–70% confluency using polyethyleneimine and incubated for 3–4 days before use. For FlexStation assays, transfected cells were plated on 96-well plates and incubated 1–2 days before assay. […]
Eight-point binding assays were performed to produce saturation binding curves. […] Radioactive counts were measured using a Beckman LS6000SC liquid scintillation counter (Fullerton, California, USA).
Data were analyzed by iterative curve fitting using GraphPad Prism v5 (San Diego, CA) according to the following equation: B=Bmax[L]^n/kdn+[L]^n where B is the amount of bound radioligand, Bmax is the maximum specific binding at equilibrium, [L] is the concentration of radioligand, Kd is the equilibrium dissociation constant of the radioligand, and n is the Hill coefficient.

As to `NCCc1c[nH]c2ccc(O)cc12` [5-HT, serotonin], the “Hill Coefficient” value in assay [1] is 1.2 ± 0.2. At 5-HT3A receptor S163A, `O=C1c2cccc3c2[C@H](CCC3)CN1[C@@H]1CN2CCC1CC2` [Palonosetron] registered a Kd of 0.3 ± 0.08 nM.
